Results as given in PubChem BioAssay (NCI).
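A five-concentration, 48-hour dose response in 96-well plates underlies each endpoint, interpolated linearly between surrounding concentrations. GI50 marks 50% less growth. TGI: concentration producing complete growth inhibition.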

Columns and labels:
Assay in all cases: NCI-60 cell line screen, 48 h
[1] = test system: A498 renal
[2] = test system: ACHN renal
[3] = test system: BT-549 breast
[4] = test system: CAKI-1 renal
[5] = test system: CCRF-CEM leukemia
[6] = test system: EKVX NSCLC
[7] = test system: HL-60(TB) leukemia
[8] = test system: MDA-MB-435
[9] = test system: MOLT-4 leukemia
[10] = test system: OVCAR-5 ovarian
[11] = test system: PC-3 prostate
[12] = test system: RPMI-8226 leukemia
[13] = test system: RXF 393 renal
[14] = test system: SF-539 CNS
[15] = test system: SK-MEL-28 melanoma
[16] = test system: SK-MEL-5 melanoma
[17] = test system: SK-OV-3 ovarian
[18] = test system: SNB-75 CNS
[19] = test system: T-47D breast
[20] = test system: UACC-62 melanoma

## C=Cc1c(C)c2cc3nc(cc4[nH]c(cc5nc(cc1[nH]2)C(C)=C5CCC(=O)O)c(CCC(=O)OC)c4C)[C@@]1(C)C3=CC=C(C(=O)OC)[C@H]1C(=O)OC
[1]
  GI50: 1.19 µM
  TGI: 2.52 µM
[2]
  GI50: 1.34 µM
  TGI: 2.62 µM
[3]
  GI50: 1.24 µM
  TGI: 2.8 µM
[4]
  GI50: 1.17 µM
  TGI: 2.39 µM
[5]
  GI50: 0.829 µM
  TGI: 3.68 µM
[6]
  GI50: 2.1 µM
  TGI: 5.38 µM
[7]
  GI50: 2.09 µM
  TGI: 5.7 µM
[8]
  GI50: 0.357 µM
  TGI: 1.34 µM
[9]
  GI50: 0.388 µM
  TGI: 1.89 µM
[10]
  GI50: 1.59 µM
  TGI: 3.07 µM
[11]
  GI50: 1.43 µM
  TGI: 6.69 µM
[12]
  GI50: 1.27 µM
  TGI: > 100 µM
[13]
  GI50: 1.97 µM
  TGI: 4.47 µM
[14]
  GI50: 1.4 µM
  TGI: 2.7 µM
[15]
  GI50: 1.51 µM
  TGI: 3 µM
[16]
  GI50: 1.7 µM
  TGI: 3.15 µM
[17]
  GI50: 1.85 µM
  TGI: 3.54 µM
[18]
  GI50: 0.846 µM
  TGI: 2.18 µM
[19]
  GI50: 1.48 µM
  TGI: 4.53 µM
[20]
  GI50: 1.37 µM
  TGI: 2.8 µM
